Source: article PMC6696415, “Supersaturation Potential of Amorphous Active Pharmaceutical Ingredients after Long-Term Storage” (Molecules, 2019)

Tests used:
[1] = In vitro supersaturation under non-sink conditions (µDISS Profiler, tenfold supersaturation ratio, spray-dried solids); type: physicochemical; conditions: for RAUC (AUC ratio spray-dried/crystalline) / RCmax,app (Cmax,app ratio spray-dried/crystalline): tenfold supersaturation ratio, phosphate buffer pH 6.5, 37 °C, 60 min; for Ratio AUC (RAUC) / Ratio Cmax (RCmax,app): pH 6.5, 37 °C
Experimental: The protocol is described in Edueng et al.. In short, the experiment was initiated by constructing a standard curve (R^2 ≥ 0.97) covering the possible concentrations attained from the supersaturation. […] For this purpose, a small-scale dissolution apparatus, the µDISS Profiler (pION Inc., Billerica, MA, USA), was used. The temperature and stirring rate were maintained at 37 °C and 100 rpm, respectively, and the supersaturation behavior was monitored for 60 min. The experiments were conducted in triplicate for each sample type.
The effects of physical aging and/or crystallization upon storage on the performance at tenfold supersaturation were assessed on the basis of the following parameters: (i) the apparent maximum concentration achieved (Cmax,app); (ii) the area under the curve (AUC); and (iii) the crystallization rate constant (k) (see Figure 9). Cmax,app refers to the maximum supersaturation concentration attained by dissolving amorphous solid in the medium before a decline in concentration was observed. […] The crystallization rate constant (k) defines the rate at which a decrease in concentration was observed. It gives an indication of the crystallization rate upon dissolution and is expressed as the reciprocal of the x-axis time units.
These three parameters were determined using GraphPad Prism version 8.1.0 for Windows (GraphPad Software, San Diego, CA, USA). Cmax,app was obtained by determining descriptive statistics of the tabulated dissolution data. It corresponds to the maximum value or highest point in the dissolution data (referred to as “maximum” in the Graphpad software). The AUC was computed based on the trapezoidal rule. The Cmax,app and AUC of the fresh and the aged/crystallized spray-dried samples were divided by the Cmax,app and AUC of the crystalline samples to obtain the ratios of both parameters (see Equations (1) and (2)). The ratios were then referred to as RCmax,app and RAUC, respectively. The crystallization was approximated following first-order kinetics, leading to Equation (3). The k value was determined by performing a nonlinear curve fitting of Equation (3) from the time point of Cmax,app of the supersaturation profiles of the samples using the same software. (1) RCmax,app=Cmax,SD/Cmax,cryst (2) RAUC=AUCSD/AUCcryst (3) C(t)=(C0−C∞)·e^−k·t+C∞
In Equation (3), C0 is the fitted concentration at t = 0, C∞ is the estimated concentration at infinite time, and k is the rate constant. In our study, the concentration is expressed in µg/mL while k is expressed in min^−1.

[2] = Physical stability study of spray-dried amorphous APIs stored at 75% RH, 25 °C (solid state by Raman, MDSC, PXRD); type: physicochemical; conditions: for Estimated Amorphous Content at Day 168 / Crystal Growth / Crystallization Initiation Propensity / Time to Complete Crystallization / Time to Start Crystallization: 75% RH at 25 °C; for Estimated Amorphous Content at Day 168: semi-quantitative Raman analysis; for Stability for 168 Days at 75% RH / Crystal Growth / Crystallization Initiation Propensity / Time to Complete Crystallization / Time to Start Crystallization: spray-dried amorphous API; for Stability for 168 Days at 75% RH: 25 °C; for Time to Complete Crystallization / Time to Start Crystallization: up to 168 days
Experimental: The amorphous solids were prepared by spray-drying. In short, solutions containing the APIs of interest were prepared by dissolving the crystalline powder in either ethanol, acetone, or a mixture of 90:10 (% w/w) ethanol/acetone prior to spray-drying. Any unwanted debris and particulate contaminants were removed by filtration (0.45 µm pore size). Thereafter, the solutions were spray-dried using a Büchi B-290-Mini Spray Dryer with an inert loop (Büchi Laboratoriums, Flawil, Switzerland) according to the processing parameters previously described by Edueng et al.. After spray-drying, the collected solids were divided and kept in two different wide-mouth aluminum containers. These open containers were placed in a vacuumed desiccator overnight to remove any residual solvent. The vacuum-dried solids were subsequently characterized with different solid-state analytical methods, studied for their supersaturation behavior, and stored in the stability chamber for 168 days (6 months). Following the overnight vacuum-drying, the spray-dried materials were placed in a stability chamber with a 75% relative humidity level and constant temperature of 25 °C. The samples were stored in open wide-mouth aluminum containers. Samples were withdrawn from the stability chamber at 1, 2, 7, 14, 28, 84, and 168 day(s) for the solid-state analyses. These analyses monitored the physical stability of the amorphous API, and the supersaturation study investigated the impact of solid-state changes on the supersaturation potential and crystallization kinetics. The preparation of these materials and the physical stability protocol are described in detail in Edueng et al..
A Twin-Twin (Bruker, Coventry, UK) measuring in Bragg–Brentano geometry and equipped with a sample rotator was used to collect the X-ray diffractograms of the unprocessed crystalline and freshly spray-dried APIs. The solid samples were gently ground with a mortar and pestle when the powder was too coarse. Thereafter, they were placed on silicon sample holders which rotated at 40 rpm during the measurement. The X-ray source was a rotating copper anode with an accelerating voltage of 40 kV and current of 40 mA. The emitted Cu Kα radiation (λ = 1.54 Å) was used in the measurements. A diffraction pattern in the 2Ө range between 5° and 40° was collected at a scanning step of 0.01° and 0.3 s exposure time at each step. Primary and secondary divergence slits of 0.40 and 2.48 mm, respectively, were used. Since this technique provides a more direct interpretation regarding the amorphous and/or crystalline content of samples, it was used to ensure that the spray-dried APIs were fully amorphous prior to the initiation of other analyses. Based on this information, the reference Raman spectra for the fully amorphous and fully crystalline samples of each compound could be established.
Modulated differential scanning calorimetry (MDSC) was performed to identify and monitor the solid-state form changes of the solids (amorphous, crystalline, or a mixture of both) and to determine the temperatures of glass transition (Tg), crystallization (Tc), and melting (Tm). Approximately 1–5 mg of sample was weighed and transferred into standard aluminum pans. The lids were pin-holed to allow evaporation of any solvent or moisture. Depending on the Tg, the samples were equilibrated at either −70 °C or 0 °C to allow for at least a 20 °C baseline prior to the Tg measurement, followed by heating up to 20–30 °C above the Tm at 3 °C/min and a temperature modulation of ±1 °C every 60 s. Analyses and integrations of the thermograms were performed using TA Instruments Universal Analysis 2000 for Windows (Version 4.5A, Sollentuna, Sweden) software.
In addition to MDSC, the samples were examined by Raman spectroscopy using a Rxn-2 Hybrid Raman Spectrometer (Kaiser Optical System Inc., Ann Arbor, MI, USA). […]

[3] = aged and/or crystallized spray-dried (SD Tn, stored at 75% RH)
[4] = spray-dried samples (fresh and aged), as summarised in text from Figures 2 and 3
[5] = 2-day sample (SD T2D; 23% crystalline) stored at 75% RH
[6] = 2-day-old sample containing 23% crystallinity
[7] = 7-day sample (SD T7D; completely crystalline) stored at 75% RH

Row | SMILES | RAUC (AUC ratio spray-dried/crystalline) [1, 3] | RCmax,app (Cmax,app ratio spray-dried/crystalline) [1, 3] | RAUC (AUC ratio spray-dried/crystalline) ([1]; freshly spray-dried (SD T0)) | RCmax,app (Cmax,app ratio spray-dried/crystalline) ([1]; freshly spray-dried (SD T0)) | Estimated Amorphous Content at Day 168 [2] | Stability for 168 Days at 75% RH [2] | Crystal Growth [2] | Crystallization Initiation Propensity [2] | Time to Complete Crystallization [2] | Time to Start Crystallization [2] | other results
1 | NS(=O)(=O)c1cc2c(cc1Cl)NCNS2(=O)=O [Hydrochlorothiazide, hydrochlorothiazide] |  |  |  |  | 0% | Low | Rapid | High | 1 days | 1 days | 
2 | C[C@]12CCC(=O)C=C1CC[C@@H]1[C@@H]2[C@@H](O)C[C@@]2(C)[C@H]1CC[C@]2(O)C(=O)CO [Hydrocortisone, hydrocortisone] |  |  |  |  | ~89% | Moderate | Slow | High |  | 1 days | Estimated crystalline content ([2]; after 168 days at 75% RH): 11%
3 | CC(=O)N1CCN(c2ccc(OCC3COC(Cn4ccnc4)(c4ccc(Cl)cc4Cl)O3)cc2)CC1 (centres unmarked) [Ketoconazole, ketoconazole] | 0.8 | 1.1 | 1.6 | 2.0 | 0% | Low | Rapid | High | 7 days | 1 days | Ratio AUC (RAUC) [1, 5]: 0.7; Ratio Cmax (RCmax,app) [1, 5]: 0.9; Decrease of AUC ratio versus fresh sample [1, 6]: 50%; Decrease of Cmax ratio (Cmax,app) versus fresh sample [1, 6]: 50%; Ratio AUC (RAUC) [1, 7]: 0.8; Ratio Cmax (RCmax,app) [1, 7]: 1.1; Decrease of RCmax,app versus fresh sample ([1]; completely crystallized spray-dried sample): 50%; Estimated crystalline content ([2]; 2-day sample (T2D) at 75% RH): 23%
4 | Cc1ccccc1N1C(=O)c2cc(S(N)(=O)=O)c(Cl)cc2NC1C (centres unmarked) [Metolazone, metolazone] | 1.8 | 2.8 | 1.5 | 2.8 | 100% | High |  | Low | >168 days | >168 days | Time to Start Crystallization ([2]; listed as metolazone): ≥ 168 days
5 | CC1Cc2ccccc2N1NC(=O)c1ccc(Cl)c(S(N)(=O)=O)c1 (centres unmarked) [Indapamide, indapamide] | 2.1 | 2.5 | 1.9 | 2.3 | 100% | High |  | Low | >168 days | >168 days | Time to Start Crystallization ([2]; listed as indapamide): ≥ 168 days

More lines, main results first:

Row | RAUC (AUC ratio spray-dried/crystalline) [1, 3] | RCmax,app (Cmax,app ratio spray-dried/crystalline) [1, 3] | RAUC (AUC ratio spray-dried/crystalline) ([1]; freshly spray-dried (SD T0)) | RCmax,app (Cmax,app ratio spray-dried/crystalline) ([1]; freshly spray-dried (SD T0)) | Estimated Amorphous Content at Day 168 [2] | Stability for 168 Days at 75% RH [2] | Crystal Growth [2] | Crystallization Initiation Propensity [2] | Time to Complete Crystallization [2] | Time to Start Crystallization [2] | SMILES | other results
6 | 4.4 | 7.6 | 4.1 | 7.2 | 94% | Moderate | Slow | High | >168 days | 1 days | COc1ccc(Cl)cc1C(=O)NCCc1ccc(S(=O)(=O)NC(=O)NC2CCCCC2)cc1 [Glibenclamide, glibenclamide] | RAUC, times higher than the crystalline counterparts [1, 4]: ~4 times; RCmax,app, times higher than the crystalline counterparts [1, 4]: approximately 7 times; Estimated Amorphous Content at Day 168 ([2]; listed as glibenclamide): approximately 94%; Estimated crystalline content ([2]; after 168 days at 75% RH): 6%
7 | 1.5 | 1.5 | 1.5 | 1.6 | 0% | Low | Rapid | High | 1 days | 1 days | Nc1ccc(S(=O)(=O)Nc2nccs2)cc1 [Sulfathiazole, sulfathiazole] | 
